The record followed here is patent US7163946B2 (Ligand Pharmaceuticals Incorporated, priority 2002, dated 2007).

Read-outs that look alike come from different tables or passages of the source.

Usually EC50 stands for the midpoint of the concentration-response curve.

Assay [1] concerns immature rabbits. The assay can be described thus: McPhail (Clauberg) rabbit assay of progestational activity. Type of assay: in vivo. The settings on record: Oryctolagus cuniculus; estradiol-primed immature rabbits; glandular changes of the uterus; read-out: potency (MAD in mg/kg), minimum active dose.
Assay [2] has as its target T1, hGR (Homo sapiens, UniProt P04150).
T1 sequence (P04150 1-777): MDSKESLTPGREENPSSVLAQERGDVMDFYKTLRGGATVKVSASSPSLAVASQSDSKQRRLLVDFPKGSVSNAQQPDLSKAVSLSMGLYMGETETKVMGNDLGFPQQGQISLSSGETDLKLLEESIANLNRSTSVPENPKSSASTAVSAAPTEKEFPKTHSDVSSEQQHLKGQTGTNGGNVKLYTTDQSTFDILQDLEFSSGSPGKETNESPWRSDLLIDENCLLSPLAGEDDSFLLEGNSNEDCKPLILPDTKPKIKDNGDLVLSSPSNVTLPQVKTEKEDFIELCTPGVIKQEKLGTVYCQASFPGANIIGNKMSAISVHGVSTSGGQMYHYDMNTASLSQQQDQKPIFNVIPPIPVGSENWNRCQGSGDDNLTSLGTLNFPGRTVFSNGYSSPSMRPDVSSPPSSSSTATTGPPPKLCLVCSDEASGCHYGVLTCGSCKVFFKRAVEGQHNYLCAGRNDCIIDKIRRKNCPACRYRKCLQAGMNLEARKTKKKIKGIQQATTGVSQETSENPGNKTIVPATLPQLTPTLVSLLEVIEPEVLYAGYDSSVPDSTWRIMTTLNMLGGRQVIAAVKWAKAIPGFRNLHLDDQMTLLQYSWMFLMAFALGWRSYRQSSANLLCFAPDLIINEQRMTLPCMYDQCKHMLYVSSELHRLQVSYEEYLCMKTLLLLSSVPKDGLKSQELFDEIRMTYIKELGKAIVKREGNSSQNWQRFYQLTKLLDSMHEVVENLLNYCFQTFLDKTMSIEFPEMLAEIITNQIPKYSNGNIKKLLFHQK
Kind of assay: hGR cotransfection assay (potency ratio to hPR). The settings on record: receptor-selectivity potency ratio, cotransfection assays. In kind it is cell-based.
Protocol: (§1) Antagonist efficacy was determined as a function (%) of maximal inhibition of a reference agonist at EC50 concentration. All the cotransfection experiments were carried out in 96-well plates by automation (Beckman Biomomek automated workstation).

In assay [3] the test system is ovariectomized female rats. Kind of assay: Multi-endpoint adult rat model, uterus/breast tissue-selectivity. In kind it is in vivo. The settings on record: ratio of relative efficacy to MPA in uterus verse in breast tissue at the same highest dose tested; estrone-treated ovariectomized rats, three days.
Description: In this assay, advantage is taken of the fact that in the uterus, estrogens induce a proliferation and increase in the epithelial cell height and uterine wet weight, which can be antagonized by progestins. In the breast, estrogens induce a proliferation of the ductal network while progestins stimulate the growth of the lobular-alveolar end buds, which grow from the distal end of the ducts. […] Proliferating cells or inhibition of proliferating cells were quantitated either by measurements of cell height in sectioned and stained tissue samples or, in the case of the breast, immuno-histochemically labeled Brdu incorporated nuclei.
Assay [4] addresses T2, hPR (Homo sapiens, UniProt P06401).
T2 sequence (P06401 1-933): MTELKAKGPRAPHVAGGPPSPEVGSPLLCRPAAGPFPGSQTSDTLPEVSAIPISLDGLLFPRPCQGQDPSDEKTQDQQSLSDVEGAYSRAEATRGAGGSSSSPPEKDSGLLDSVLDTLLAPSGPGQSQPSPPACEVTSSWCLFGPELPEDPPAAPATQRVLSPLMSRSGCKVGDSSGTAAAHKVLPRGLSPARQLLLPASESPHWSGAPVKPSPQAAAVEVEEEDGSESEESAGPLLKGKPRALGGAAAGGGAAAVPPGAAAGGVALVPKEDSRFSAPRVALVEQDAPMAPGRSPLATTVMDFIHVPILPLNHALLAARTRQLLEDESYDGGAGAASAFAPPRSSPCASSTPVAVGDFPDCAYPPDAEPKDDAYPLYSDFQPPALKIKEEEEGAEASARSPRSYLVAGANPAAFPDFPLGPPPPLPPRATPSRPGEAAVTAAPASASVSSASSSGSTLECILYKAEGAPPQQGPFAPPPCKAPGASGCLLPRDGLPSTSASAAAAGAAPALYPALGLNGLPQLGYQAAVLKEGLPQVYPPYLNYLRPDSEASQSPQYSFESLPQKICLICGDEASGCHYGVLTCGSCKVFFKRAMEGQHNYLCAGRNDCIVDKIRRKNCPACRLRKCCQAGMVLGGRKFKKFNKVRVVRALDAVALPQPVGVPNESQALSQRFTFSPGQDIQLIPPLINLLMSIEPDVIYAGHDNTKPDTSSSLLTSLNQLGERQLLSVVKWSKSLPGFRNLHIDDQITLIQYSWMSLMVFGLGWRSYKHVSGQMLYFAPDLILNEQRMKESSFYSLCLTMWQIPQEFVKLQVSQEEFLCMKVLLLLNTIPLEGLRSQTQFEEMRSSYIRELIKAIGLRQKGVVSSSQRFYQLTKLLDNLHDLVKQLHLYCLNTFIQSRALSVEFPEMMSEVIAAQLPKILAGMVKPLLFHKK
The assay can be described thus: hPR cotransfection assay in CV-1 cells, agonist mode. As to conditions: for Emax: CV-1, CV-1 cells, relative to maximal response of progesterone as 100%, read-out: hPR Agonist CV-1 Cells Eff. (%). In kind it is cell-based.
Protocol: as §1

Where [5] appears, read: CV-1 cells, read-out: hPR Agonist CV-1 Cells EC50.
The mark [6] stands for this setting: Tables 3 and 4, values without footnote, read-out: hPR agonist potencies (EC50 in nM) in the cotransfection assay.

On to `CC1=CC(C)(C)Nc2ccc3c(c21)/C(=C/c1cc(F)ccc1F)Oc1c(F)cc(F)cc1-3` [Compound 17, 7,9-difluoro-5(Z)-(2,5-difluorobenzylidene)-1,2-dihydro-2,2,4-trimethyl-5H-chromeno[3,4-f]quinoline], for which the minimal effective dose in assay [1] stood at 0.25 mg/kg. In addition, the “hGR EC50 or IC50/hPR EC50” value in assay [2] amounted to 66. In addition, in assay [3], the uterus/breast tissue-selectivity came to 2.7. Further, the Emax in assay [4] worked out at 169%. Also, the EC50 in assay [4] (setting [5]) and in assay [4] (setting [6]) was 2.9 nM each time.

Regarding `CC1=CC(C)(C)Nc2ccc3c(c21)/C(=C/c1cc(F)ccc1C)Oc1c(F)cc(F)cc1-3` [Compound 19, 7,9-difluoro-5(Z)-(2-methyl-5-fluorobenzylidene)-1,2-dihydro-2,2,4-trimethyl-5H-chromeno[3,4-f]quinoline], the minimal effective dose in assay [1] was 0.1 mg/kg. In addition, in assay [2], the “hGR EC50 or IC50/hPR EC50” value is 432. The uterus/breast tissue-selectivity in assay [3] is on record as 3.5. Further, the Emax in assay [4] is 212%. The EC50 in assay [4] (setting [5]) and in assay [4] (setting [6]) was 1.4 nM throughout.
